Data: patent US20260021079A1, “NOX INHIBITORS FOR USE IN THE TREATMENT OF ALPORT SYNDROME” (CALLIDITAS THERAPEUTICS SUISSE SA, priority 2022, published 2026)

Columns and labels:
Type in all cases: in vivo
[1] = system: homozygous Col4a3 ko/ko mice; assay: Albumin/creatinine ratio in urine in Col4a3 Alport mouse model; conditions: Ramipril 10 mg/kg
From the text: (§1) Mice homozygous for the Col4a3 ko/ko targeted mutation are a model for autosomal-recessive Alport syndrome (Cosgrove et al. Kidney Int. 2007, 71(7), p. 615-618). Animals bred on a 129/SvJ background develop glomerulonephritis and die at about 8.5 weeks of age (Jackson Laboratory strain: #002908). Gross et al. Kidney Int. 2003, 63(2), p. 438-446) reported a mean survival of 10 weeks. Since homozygous Col4a3 ko/ko mice reflect key features of Alport syndrome, this mouse model is useful to test potential drug candidates. A number of 40 homozygous Col4a3 ko/ko mice, allocated to 4 groups (vehicle, setanaxib, Ramipril, and setanaxib+Ramipril combination) with n=10 animals each, were used for the study. Starting at an age of 4 weeks, animals were treated with vehicle and/or compound daily per oral gavage for 4 weeks. The reference compound Ramipril was administered via drinking water, prepared on a weekly basis, but changed at the latest after 4 days. Additionally, one wild-type control group (Col4A3+/+) without any treatment was enclosed in the study with n=6 animals. […] Albumin and Creatinine levels were evaluated by ELISA in urine samples of 8 animals per treatment group. Treatment 40 homozygous Col4a3 ko/ko mice, allocated to 4 groups with n=10 animals each, were used for this study. Animals were treated with vehicle or compound daily per oral gavage for 4 weeks starting at an age of 4 weeks. The reference compound Ramipril was administered via drinking water, prepared on a weekly basis, but changed latest after 4 days. Additionally, one wild-type control group without any treatment was enclosed in the study with n=6 animals. The treatment groups are outlined in the table below: […] In case no urine was produced during the fixation process, massage of the abdomen was allowed. Urine was collected in Eppendorf Tubes, spun at 800×g at room temperature for 10 minutes and supernatant was transferred into a fresh tube and frozen at -20° C. until use. Creatinine and Albumin levels in urine supernatants, collected from 8 animals each group […] timepoints, at baseline, 6 and 8 weeks of age (n=96), were analyzed. Creatinine levels in urine samples of all animals (n=8 per group, 4 groups, 3 time points, total n=96) were analyzed. For that purpose, an enzymatic assay from Diazyme® (DZ072B) was used. The analysis was performed according to manufacturer protocol with minor modifications introduced for use in 96 well plates and readout in standard plate photometer (Cytation 5, Biotek). Albumin levels in urine supernatants, collected from each animal per group at 3 time points (total n=96) were analyzed using an Albumin Mouse ELISA Kit (ab108792; Abcam) according to manufacturer protocol.

[2] = system: homozygous Col4a3 ko/ko mice; assay: Albumin levels in urine (Albumin Mouse ELISA) in Col4a3 Alport mouse model; conditions: setanaxib 60 mg/kg daily oral gavage, Ramipril 10 mg/kg via drinking water; for Albumin levels in urine vs vehicle: age 6 weeks (2 weeks of treatment)
From the text: as §1, with “analyzed.” for “analyzed. Creatinine levels in urine samples of all animals (n=8 per group, 4 groups, 3 time points, total n=96) were analyzed. For that purpose, an enzymatic assay from Diazyme® (DZ072B) was used. The analysis was performed according to manufacturer protocol with minor modifications introduced for use in 96 well plates and readout in standard plate photometer (Cytation 5, Biotek).”, “protocol. Briefly, urine samples were centrifuged at 800×g for 10 minutes and diluted into Diluent N. 50 μL of albumin standard or sample was added per well and incubated for 2 hours. After a washing step, 50 μL of biotinylated albumin antibody was added to each well and incubated for 1 hour. […] Albumin levels were determined by reading the absorbance at 450 nm immediately after adding the stop solution.” for “protocol.”

[3] = system: homozygous Col4a3 ko/ko mice; assay: Blood Urea Nitrogen (BUN) colorimetric detection in plasma, Col4a3 Alport mouse model; conditions: end of study (4 weeks of treatment); first experiment
From the text: (§2) Mice homozygous for the Col4a3 ko/ko targeted mutation are a model for autosomal-recessive Alport syndrome (Cosgrove et al. Kidney Int. 2007, 71(7), p. 615-618). Animals bred on a 129/SvJ background develop glomerulonephritis and die at about 8.5 weeks of age (Jackson Laboratory strain: #002908). Gross et al. Kidney Int. 2003, 63(2), p. 438-446) reported a mean survival of 10 weeks. Since homozygous Col4a3 ko/ko mice reflect key features of Alport syndrome, this mouse model is useful to test potential drug candidates. A number of 40 homozygous Col4a3 ko/ko mice, allocated to 4 groups (vehicle, setanaxib, Ramipril, and setanaxib+Ramipril combination) with n=10 animals each, were used for the study. Starting at an age of 4 weeks, animals were treated with vehicle and/or compound daily per oral gavage for 4 weeks. The reference compound Ramipril was administered via drinking water, prepared on a weekly basis, but changed at the latest after 4 days. Additionally, one wild-type control group (Col4A3+/+) without any treatment was enclosed in the study with n=6 animals. At study end the animals were euthanized by i.p. injection of pentobarbital and terminal blood was collected by heart puncture in EDTA coated tubes. […] BUN plasma levels of all animals at the end of the study were analyzed. […]

[4] = system: homozygous Col4a3 ko/ko mice; assay: Quantitative detection of mouse Cystatin C in plasma (ELISA), Col4a3 Alport mouse model; conditions: end of study (4 weeks of treatment); first experiment
From the text: as §2, with “Cystatin C” for “BUN”

[5] = age 8 weeks (4 weeks of treatment), setanaxib 60 mg/kg

CCOC(=O)[C@H](CCc1ccccc1)N[C@@H](C)C(=O)N1[C@H](C(=O)O)C[C@@H]2CCC[C@@H]21 [Ramipril, (2S,3aS,6aS)-1-[(2S)-2-[[(2S)-1-ethoxy-1-oxo-4-phenylbutan-2-yl]amino]propanoyl]-3,3a, 4,5,6,6a-hexahydro-2H-cyclopenta[b]pyrrole-2-carboxylic acid]
Albumin to Creatinine ratio in urine vs vehicle ([1]; age 6 weeks, first experiment, setanaxib 60 mg/kg): reduced the Albumin to Creatinine ratio, but without reaching significance
Albumin to Creatinine ratio in urine vs vehicle ([1]; age 6 weeks, second experiment): the reduction did reach significance
Albumin to Creatinine ratio in urine vs vehicle [1, 5]: significantly decreased
Albumin levels in urine vs vehicle ([2]; first experiment): slightly reduced the amount of albumin in the urine
Albumin levels in urine vs vehicle ([2]; second experiment): reduced to a greater extent
BUN plasma levels vs vehicle [3]: significant decrease
Cystatin C plasma levels vs vehicle [4]: significant decrease

CN(C)c1cccc(-c2c3c(=O)n(-c4ccccc4Cl)[nH]c3cc(=O)n2C)c1 [setanaxib, 2-(2-chlorophenyl)-4-[3-(dimethylamino)phenyl]-5-methyl-1H-pyrazolo[4,3-c]pyridine-3,6(2H,5H)-dione]
Albumin to Creatinine ratio in urine vs vehicle ([1]; age 6 weeks, both first and second experiment, setanaxib 60 mg/kg): trend in both the first and second experiment towards an increase
Albumin to Creatinine ratio in urine vs vehicle [1, 5]: average decrease
Albumin levels in urine vs vehicle ([2]; both experiments / experiment not specified): trend towards increased Albumin levels
Albumin levels in urine vs control (vehicle) ([2]; age 8 weeks (4 weeks of treatment)): decrease in average Albumin levels
BUN plasma levels vs vehicle [3]: significant decrease
Cystatin C plasma levels vs vehicle [4]: significant decrease
